In patent US10988524B2, “Modified relaxin B chain peptides and their therapeutic use” (priority 2018, dated 2021):
Non-standard residues stand in square brackets, D forms with d. Residues, ends and D or L forms follow the SMILES beside them. 1Nal = N[C@@H](Cc1cccc2ccccc12)C(=O)O; Nle = CCCC[C@H](N)C(=O)O; Aib = CC(C)(N)C(=O)O

Molecular target: T1, RXFP1 (Homo sapiens, UniProt Q9HBX9)
T1 sequence (Q9HBX9 1-757): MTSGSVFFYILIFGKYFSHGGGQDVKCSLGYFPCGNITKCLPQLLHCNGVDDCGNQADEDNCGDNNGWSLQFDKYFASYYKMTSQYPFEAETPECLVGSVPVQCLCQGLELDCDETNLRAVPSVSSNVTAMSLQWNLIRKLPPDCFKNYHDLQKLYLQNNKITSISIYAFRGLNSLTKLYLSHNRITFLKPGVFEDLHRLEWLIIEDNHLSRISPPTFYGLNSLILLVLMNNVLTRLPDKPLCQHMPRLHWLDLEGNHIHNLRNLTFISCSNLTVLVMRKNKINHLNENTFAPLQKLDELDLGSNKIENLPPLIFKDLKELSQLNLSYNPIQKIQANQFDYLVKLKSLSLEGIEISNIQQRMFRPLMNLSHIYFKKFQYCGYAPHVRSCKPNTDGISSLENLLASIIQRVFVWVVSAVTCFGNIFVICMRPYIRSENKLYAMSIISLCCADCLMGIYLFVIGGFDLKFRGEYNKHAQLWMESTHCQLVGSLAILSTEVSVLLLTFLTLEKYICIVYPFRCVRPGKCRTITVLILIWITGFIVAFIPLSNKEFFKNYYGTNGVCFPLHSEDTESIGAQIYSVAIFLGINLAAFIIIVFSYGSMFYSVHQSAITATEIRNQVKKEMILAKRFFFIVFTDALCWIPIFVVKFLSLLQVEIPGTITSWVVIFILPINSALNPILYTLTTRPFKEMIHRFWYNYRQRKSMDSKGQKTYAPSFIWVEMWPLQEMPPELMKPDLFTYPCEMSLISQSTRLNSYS
Assay: OVCAR5 cAMP assay (RXFP1 agonist activity, HTRF)
Conditions: OVCAR-5, read-out: cAMP assay in OVCAR 5 cells Emax, maximal intracellular cAMP relative to H2-relaxin in the same test occasion

Q: How did the Emax turn out when CCCC[C@H](NC(=O)CNC(=O)[C@H](CCC(=O)O)NC(=O)C(C)(C)NC(=O)C(C)(C)NC(=O)[C@@H](NC(=O)[C@H](CCCCNC(C)=O)NC(=O)[C@H](C)NC(=O)[C@H](CCCNC(=N)N)NC(=O)[C@@H](NC(=O)[C@H](CCCCN)NC(=O)[C@H](CCC(=O)O)NC(=O)[C@H](CCCNC(=N)N)NC(=O)CNC(=O)[C@H](CCC(=O)O)NC(=O)[C@H](CC(C)C)NC(C)=O)C(C)C)[C@@H](C)CC)C(=O)N[C@@H](CO)C(=O)N[C@H](C(=O)N[C@@H](Cc1c[nH]c2ccccc12)C(=O)N[C@@H](CO)C(=O)NC(C)(C)C(=O)N[C@@H](CCCNC(=N)N)C(=O)N[C@@H](CCCCN)C(=O)N[C@@H](CC(C)C)C(N)=O)[C@@H](C)O [compound 32] (Ac-LEGREKVRAK(Ac)I[Aib][Aib]EG[Nle]STWS[Aib]RKL-NH2) was run?
A: 95%

Q: How did the Emax turn out when CCCC[C@H](NC(=O)CNC(=O)[C@H](CCC(=O)O)NC(=O)C(C)(C)NC(=O)C(C)(C)NC(=O)[C@@H](NC(=O)[C@H](C)NC(=O)[C@H](C)NC(=O)[C@H](CCCNC(=N)N)NC(=O)[C@@H](NC(=O)[C@H](CCCCN)NC(=O)[C@H](CCC(=O)O)NC(=O)[C@H](CCCNC(=N)N)NC(=O)CNC(=O)[C@H](CCC(=O)O)NC(=O)[C@H](CC(C)C)NC(=O)[C@H](CCC(=O)O)NC(C)=O)C(C)C)[C@@H](C)CC)C(=O)N[C@@H](CO)C(=O)N[C@H](C(=O)N[C@@H](Cc1c[nH]c2ccccc12)C(=O)N[C@@H](CO)C(=O)NC(C)(C)C(=O)N[C@@H](CCCNC(=N)N)C(=O)N[C@@H](CCCCN)C(=O)N[C@@H](CCCCN)C(N)=O)[C@@H](C)O [compound 48] (Ac-ELEGREKVRAAI[Aib][Aib]EG[Nle]STWS[Aib]RKK-NH2) was run?
A: 91%

Q: How did the Emax turn out when CC[C@H](C)[C@H](NC(=O)[C@H](CCC(N)=O)NC(=O)[C@H](C)NC(=O)[C@H](CCCNC(=N)N)NC(=O)[C@@H](NC(=O)[C@H](CCCCN)NC(=O)[C@H](CCC(=O)O)NC(=O)[C@H](CCCNC(=N)N)NC(=O)CNC(=O)[C@H](CCC(=O)O)NC(=O)[C@H](CC(C)C)NC(C)=O)C(C)C)C(=O)NC(C)(C)C(=O)NC(C)(C)C(=O)N[C@@H](CCC(=O)O)C(=O)NCC(=O)N[C@@H](CCSC)C(=O)N[C@@H](CO)C(=O)N[C@H](C(=O)N[C@@H](Cc1c[nH]c2ccccc12)C(=O)N[C@@H](CO)C(=O)NC(C)(C)C(=O)N[C@@H](CCCNC(=N)N)C(=O)N[C@@H](CCCCN)C(N)=O)[C@@H](C)O [compound 45] (Ac-LEGREKVRAQI[Aib][Aib]EGMSTWS[Aib]RK-NH2) was run?
A: 98%

Q: For CC[C@H](C)[C@H](NC(=O)[C@H](CCC(N)=O)NC(=O)[C@H](C)NC(=O)[C@H](CCCNC(=N)N)NC(=O)[C@@H](NC(=O)[C@H](CCCCN)NC(=O)[C@H](CCC(=O)O)NC(=O)[C@H](CCCNC(=N)N)NC(=O)CNC(=O)[C@H](CCC(=O)O)NC(=O)[C@H](CC(C)C)NC(C)=O)C(C)C)C(=O)NC(C)(C)C(=O)NC(C)(C)C(=O)N[C@@H](CCC(=O)O)C(=O)NCC(=O)N[C@@H](CCSC)C(=O)N[C@@H](CO)C(=O)N[C@@H](CCCCN)C(=O)N[C@@H](Cc1c[nH]c2ccccc12)C(=O)N[C@@H](CO)C(=O)NC(C)(C)C(=O)N[C@@H](CCCNC(=N)N)C(N)=O [compound 46] (Ac-LEGREKVRAQI[Aib][Aib]EGMSKWS[Aib]R-NH2), which Emax is on record?
A: 82%

Q: CCCC[C@H](NC(=O)CNC(=O)[C@H](CCC(=O)O)NC(=O)C(C)(C)NC(=O)C(C)(C)NC(=O)[C@@H](NC(=O)[C@H](CCC(N)=O)NC(=O)[C@H](C)NC(=O)[C@H](CCCNC(=N)N)NC(=O)[C@@H](NC(=O)[C@H](CCCCN)NC(=O)[C@H](CCC(=O)O)NC(=O)[C@H](CCCNC(=N)N)NC(=O)CNC(=O)[C@H](CCC(=O)O)NC(=O)[C@H](CC(C)C)NC(C)=O)C(C)C)[C@@H](C)CC)C(=O)N[C@@H](CO)C(=O)N[C@H](C(=O)N[C@@H](Cc1cccc2ccccc12)C(=O)N[C@@H](CO)C(=O)N[C@@H](CCCCN)C(=O)N[C@@H](CCCNC(=N)N)C(N)=O)[C@@H](C)O [compound 37] (Ac-LEGREKVRAQI[Aib][Aib]EG[Nle]ST[1Nal]SKR-NH2) was tested. Which Emax did it give?
A: 104%
